#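 These data come from cells grown in 96-well plates and exposed to compound for 48 hours at five concentrations. The concentration for 50% growth inhibition is given as GI50.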 The source made the active and inactive calls. Rule as the data show it: active = GI50 up to about 1.1 µM and inactive = higher.
# Assays:
# Assay in all cases: inhibition of tumour cell growth, NCI panel, 48 h
# MDA-MB-231 = system: MDA-MB-231
# A498 = system: A498
# RPMI-8226 = system: RPMI-8226
# SNB-75 = system: SNB-75
# A549 = system: A549
# RXF 393 = system: RXF 393
# NCI-H460 = system: NCI-H460
# MOLT-4 = system: MOLT-4
# NCI-H522 = system: NCI-H522
# HT-29 = system: HT-29
# NCI-H23 = system: NCI-H23
# BT-549 = system: BT-549
# HCT-116 = system: HCT-116
# TK-10 = system: TK-10
# UO-31 = system: UO-31
# KM12 = system: KM12
# MDA-N = system: MDA-N
# LOX IMVI = system: LOX IMVI
# SF-539 = system: SF-539
# K562 = system: K562
SMILES,GI50 (MDA-MB-231),GI50 (A498),GI50 (RPMI-8226),GI50 (SNB-75),GI50 (A549),GI50 (RXF 393),GI50 (NCI-H460),GI50 (MOLT-4),GI50 (NCI-H522),GI50 (HT-29),GI50 (NCI-H23),GI50 (BT-549),GI50 (HCT-116),GI50 (TK-10),GI50 (UO-31),GI50 (KM12),GI50 (MDA-N),GI50 (LOX IMVI),GI50 (SF-539),GI50 (K562)
CC1=CCC([C@@](C)(O)CCCC(C)(C)N=C=S)CC1 (stereo not given in full),19.1 µM (inactive),15.3 µM (inactive),25.7 µM (inactive),17.8 µM (inactive),17.6 µM (inactive),13.7 µM (inactive),16.5 µM (inactive),21.5 µM (inactive),17.3 µM (inactive),17.7 µM (inactive),20.9 µM (inactive),17.8 µM (inactive),13.7 µM (inactive),22 µM (inactive),13.7 µM (inactive),15.5 µM (inactive),18.4 µM (inactive),16 µM (inactive),19.2 µM (inactive),19.3 µM (inactive)
NC(=O)SCCC(N)C(=O)O (stereo not given),> 100 µM (inactive),> 100 µM (inactive),> 100 µM (inactive),> 100 µM (inactive),> 100 µM (inactive),> 100 µM (inactive),> 100 µM (inactive),> 100 µM (inactive),> 100 µM (inactive),> 100 µM (inactive),> 100 µM (inactive),> 100 µM (inactive),> 100 µM (inactive),> 100 µM (inactive),> 100 µM (inactive),> 100 µM (inactive),> 100 µM (inactive),> 100 µM (inactive),> 100 µM (inactive),> 100 µM (inactive)
CN(/N=C/c1ccccn1)C1=NCCCCN1,> 100 µM (inactive),> 100 µM (inactive),> 100 µM (inactive),> 100 µM (inactive),> 100 µM (inactive),> 100 µM (inactive),> 100 µM (inactive),> 100 µM (inactive),> 100 µM (inactive),> 100 µM (inactive),> 100 µM (inactive),> 100 µM (inactive),> 100 µM (inactive),> 100 µM (inactive),> 100 µM (inactive),> 100 µM (inactive),> 100 µM (inactive),> 100 µM (inactive),> 100 µM (inactive),> 100 µM (inactive)
CC1CCC2(OC1)OC1CC3C4CC=C5CC(OC6OC(CO)C(OC7OC(C)C(OC8OC(C)C(O)C(O)C8O)C(O)C7O)C(O)C6OC6OC(C)C(O)C(O)C6O)CCC5(C)C4CCC3(C)C1C2C (stereo not given),0.0628 µM (active),0.291 µM (active),0.382 µM (active),0.372 µM (active),0.312 µM (active),0.583 µM (active),1.61 µM (inactive),0.237 µM (active),0.643 µM (active),1 µM (active),1.66 µM (inactive),1.66 µM (inactive),0.521 µM (active),1.39 µM (inactive),0.216 µM (active),0.16 µM (active),0.4 µM (active),0.185 µM (active),0.394 µM (active),0.142 µM (active)
CC(C)=CCNc1ncnc2[nH]cnc12,> 100 µM (inactive),> 100 µM (inactive),> 100 µM (inactive),> 100 µM (inactive),> 100 µM (inactive),> 100 µM (inactive),> 100 µM (inactive),> 100 µM (inactive),> 100 µM (inactive),> 100 µM (inactive),> 100 µM (inactive),> 100 µM (inactive),> 100 µM (inactive),> 100 µM (inactive),> 100 µM (inactive),99.8 µM (inactive),> 100 µM (inactive),> 100 µM (inactive),> 100 µM (inactive),> 100 µM (inactive)
